Laboratory results: ChEMBL document CHEMBL1135508, “Synthesis, SAR, and biological evaluation of oximino-piperidino-piperidine amides. 1. Orally bioavailable CCR5 receptor antagonists with potent anti-HIV activity” (J Med Chem, 2002)

Assays:
U-87 MG = test: Concentration required to inhibit the entry of HIV-1 reporter virus (ADA) into U-87 cells by 50%; type: functional, cell-based, U-87MG ATCC
Rattus norvegicus = test: Area under curve value at 0-6 hr in rat pharmacokinetic screening after 10 mg/kg peroral dose; type: ADME, organism-based; parameters: time < 6 hr, dose 10 mg/kg, route oral; details: in vivo, po
[1] = target: T1, Muscarinic acetylcholine receptor M2 (Homo sapiens, UniProt P08172); test: Inhibitory activity against Muscarinic acetylcholine receptor M2
T1 sequence (P08172 whole entry): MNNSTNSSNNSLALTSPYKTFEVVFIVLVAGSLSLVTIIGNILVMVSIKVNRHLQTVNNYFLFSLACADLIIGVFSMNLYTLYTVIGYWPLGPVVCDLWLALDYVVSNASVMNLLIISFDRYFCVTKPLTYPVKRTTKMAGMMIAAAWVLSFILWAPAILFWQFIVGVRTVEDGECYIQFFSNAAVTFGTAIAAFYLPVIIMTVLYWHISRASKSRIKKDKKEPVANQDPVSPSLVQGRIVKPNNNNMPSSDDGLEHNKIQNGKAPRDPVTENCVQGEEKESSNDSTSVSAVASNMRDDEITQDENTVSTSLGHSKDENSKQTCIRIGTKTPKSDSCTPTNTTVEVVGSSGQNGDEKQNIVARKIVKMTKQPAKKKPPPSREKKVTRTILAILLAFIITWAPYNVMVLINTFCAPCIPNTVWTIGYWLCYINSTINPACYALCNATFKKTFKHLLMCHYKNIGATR

[2] = Plasma clearance after IV administration at the dose 10/10 (IV/Po/mg/kg); type: ADME, organism-based; details: 10 mg/kg
[3] = Plasma clearance after IV administration at the dose 2/2 (IV/Po/mg/kg); type: ADME, organism-based; details: cercopithecidae, 2 mg/kg
[4] = Percent of Absorption after IV administration at the dose 10/10 (IV/Po/mg/kg); type: ADME, organism-based; details: in vivo, 10 mg/kg, read-out: Absorption
[5] = Percent of bioavailability after oral administration at the dose 2/2 (IV/Po/mg/kg); type: ADME, organism-based; details: cercopithecidae, in vivo, 2 mg/kg, read-out: Bioavailabiility
[6] = Half life (t 1/2) after IV administration at the dose 10/10 (IV/Po/mg/kg); type: ADME, organism-based; details: in vivo, 10 mg/kg
[7] = C max after oral administration at the dose 10/10 (IV/Po/mg/kg); type: ADME, organism-based; details: in vivo, 10 mg/kg
[8] = C max after oral administration at the dose 2/2 (IV/Po/mg/kg); type: ADME, organism-based; details: cercopithecidae, in vivo, 2 mg/kg
[9] = T max after oral administration at the dose 2/2 (IV/Po/mg/kg); type: ADME, organism-based; details: cercopithecidae, in vivo, 2 mg/kg
[10] = T max after oral administration at the dose 10/10 (IV/Po/mg/kg); type: ADME, organism-based; details: in vivo, 10 mg/kg
[11] = Half life (t 1/2) after IV administration at the dose 2/2 (IV/Po/mg/kg); type: ADME, organism-based; details: cercopithecidae, in vivo, 2 mg/kg
[12] = Percent of bioavailability after oral administration at the dose 10/10 (IV/Po/mg/kg); type: ADME, organism-based; details: in vivo, 10 mg/kg, read-out: Bioavailabiility
[13] = Percent of Absorption after IV administration at the dose 2/2 (IV/Po/mg/kg); type: ADME, organism-based; details: cercopithecidae, in vivo, 2 mg/kg, read-out: Absorption

SMILES	IC50 (U-87 MG; Homo sapiens, U-87 MG)	AUC (Rattus norvegicus)	other results
CO/N=C(\c1ccc(Br)cc1)C1CCN(C2(C)CCN(C(=O)c3c(N)cccc3Cl)CC2)CC1	0.6 nM	620 ng·h/mL	
CCO/N=C(\c1ccc(Br)cc1)C1CCN(C2(C)CCN(C(=O)c3c(C)ccnc3C)CC2)CC1	0.2 nM	2100 ng·h/mL	
CO/N=C(\c1ccc(Br)cc1)C1CCN(C2(C)CCN(C(=O)c3c(C)cc[n+]([O-])c3C)CC2)CC1	5.6 nM	2400 ng·h/mL	
Cc1cccc(C)c1C(=O)N1CCC(C)(N2CCC(C(=O)c3ccc(Br)cc3)CC2)CC1	12 nM		
Cc1cccc(C)c1C(=O)N1CCC(C)(N2CCC(Cc3ccc(Br)cc3)CC2)CC1	10 nM	40 ng·h/mL	Ki [1]: 1320 nM
Cc1cccc(C)c1C(=O)N1CCC(C)(N2CCC(Cc3ccc(Cl)cc3)CC2)CC1	23 nM		
COc1ccc(CC2CCN(C3(C)CCN(C(=O)c4c(C)cccc4C)CC3)CC2)cc1	26 nM		
Cc1cccc(C)c1C(=O)N1CCC(C)(N2CCC(Cc3ccc(I)cc3)CC2)CC1	9 nM		
Cc1cccc(C)c1C(=O)N1CCC(C)(N2CCC(/C(=N/O)c3ccc(Br)cc3)CC2)CC1	10 nM		
CCO/N=C(\c1ccc(C(F)(F)F)cc1)C1CCN(C2(C)CCN(C(=O)c3c(C)cc[n+]([O-])c3C)CC2)CC1	1.3 nM	2200 ng·h/mL	
CCO/N=C(\c1ccc(S(C)(=O)=O)cc1)C1CCN(C2(C)CCN(C(=O)c3c(C)cc[n+]([O-])c3C)CC2)CC1		0 ng·h/mL	
CO/N=C(\c1ccc(Br)cc1)C1CCN(C2(C)CCN(C(=O)c3c(C)cccc3O)CC2)CC1	4 nM	3000 ng·h/mL	
CNC(=O)CO/N=C(\c1ccc(Br)cc1)C1CCN(C2(C)CCN(C(=O)c3c(C)cccc3C)CC2)CC1	4.4 nM		
CO/N=C(\c1ccc(OC(F)(F)F)cc1)C1CCN(C2(C)CCN(C(=O)c3c(C)cc[n+]([O-])c3C)CC2)CC1	5.1 nM	3300 ng·h/mL	
Cc1cccc(C)c1C(=O)N1CCC(C)(N2CCC(Cc3ccc(S(C)(=O)=O)cc3)CC2)CC1	7 nM		
Cc1cccc(C)c1C(=O)N1CCC(C)(N2CCC(Cc3ccc(C(F)(F)F)cc3)CC2)CC1	1 nM		
C=C(c1ccc(Br)cc1)C1CCN(C2(C)CCN(C(=O)c3c(C)cccc3C)CC2)CC1	1 nM	590 ng·h/mL	
Cc1cccc(C)c1C(=O)N1CCC(C)(N2CCC(/C(=N/OC(C)C)c3ccc(Br)cc3)CC2)CC1	1.7 nM	1700 ng·h/mL	
COc1ccc(S(=O)(=O)c2ccc(CC3CCN(C4CCN(C(=O)c5ccc(F)c6ccccc56)CC4)CC3)cc2)cc1			Ki [1]: 1.3 nM
CO/N=C(\c1ccc(Br)cc1)C1CCN(C2(C)CCN(C(=O)c3c(C)cccc3N)CC2)CC1	0.5 nM	1300 ng·h/mL	
Cc1cccc(C)c1C(=O)N1CCC(C)(N2CCC(Cc3ccccc3Br)CC2)CC1	1300 nM		

SMILES	IC50 (U-87 MG; Homo sapiens, U-87 MG)	AUC (Rattus norvegicus)	other results
CCO/N=C(\c1ccc(Br)cc1)C1CCN(C2(C)CCN(C(=O)c3c(C)cc(C)nc3O)CC2)CC1	6.4 nM		
CCO/N=C(\c1ccc(Br)cc1)C1CCN(C2(C)CCN(C(=O)c3c(C)cc(O)nc3C)CC2)CC1	0.9 nM	210 ng·h/mL	
Cc1ccc(CC2CCN(C3(C)CCN(C(=O)c4c(C)cccc4C)CC3)CC2)cc1	38 nM		
Cc1cccc(C)c1C(=O)N1CCC(C)(N2CCC(Cc3cccc(Br)c3)CC2)CC1	41 nM		
CO/N=C(/c1ccc(Br)cc1)C1CCN(C2(C)CCN(C(=O)c3c(C)cccc3C)CC2)CC1	2.8 nM	1200 ng·h/mL	
Cc1cccc(C)c1C(=O)N1CCC(C)(N2CCC(Cc3ccc(OC(F)(F)F)cc3)CC2)CC1	5 nM		
CCO/N=C(\c1ccc(Br)cc1)C1CCN(C2(C)CCN(C(=O)c3c(C)ccc[n+]3[O-])CC2)CC1	1.7 nM	3200 ng·h/mL	
CCO/N=C(\c1ccc(OC(F)(F)F)cc1)C1CCN(C2(C)CCN(C(=O)c3c(C)cc[n+]([O-])c3C)CC2)CC1	1.8 nM	3000 ng·h/mL	
CO/N=C(\c1ccc(C(F)(F)F)cc1)C1CCN(C2(C)CCN(C(=O)c3c(C)cc[n+]([O-])c3C)CC2)CC1	1.1 nM	350 ng·h/mL	
CCO/N=C(\c1ccc(Br)cc1)C1CCN(C2(C)CCN(C(=O)c3c(F)cccc3C(F)(F)F)CC2)CC1	2.1 nM	2700 ng·h/mL	
CO/N=C(\c1ccc(Br)cc1)C1CCN(C2(C)CCN(C(=O)c3c(C)ccnc3C)CC2)CC1	0.5 nM	1900 ng·h/mL	
Cc1cccc(C)c1C(=O)N1CCC(C)(N2CCC(C(O)c3ccc(Br)cc3)CC2)CC1 (stereo unspecified)	76 nM		
CCO/N=C(\c1ccc(Br)cc1)C1CCN(C2(C)CCN(C(=O)c3c(C)cccc3C)CC2)CC1	1.1 nM	1000 ng·h/mL	
CCO/N=C(/c1ccc(Br)cc1)C1CCN(C2(C)CCN(C(=O)c3c(C)cccc3C)CC2)CC1	9.2 nM		
Cc1cccc(C)c1C(=O)N1CCC(C)(N2CCC(/C(=N/OC(C)(C)C)c3ccc(Br)cc3)CC2)CC1	5.7 nM		
CCO/N=C(\c1ccc(Cl)cc1)C1CCN(C2(C)CCN(C(=O)c3c(C)cc[n+]([O-])c3C)CC2)CC1	1.4 nM	1700 ng·h/mL	
CCO/N=C(\c1ccc(Br)cc1)C1CCN(C2(C)CCN(C(=O)c3cccnc3C)CC2)CC1	1.4 nM		
CO/N=C(\c1ccc(Br)cc1)C1CCN(C2(C)CCN(C(=O)c3c(C)cccc3C)CC2)CC1 (stereo in doubt)		2100 ng·h/mL	IC50 (U-87 MG; u-87mg atcc): 1.4 nM
CO/N=C(\c1ccc(Br)cc1)C1CCN(C2(C)CCN(C(=O)c3c(C)cccc3C)CC2)CC1 (stereo in doubt; 14c (Z))	1.2 nM	1400 ng·h/mL	
CCO/N=C(\c1ccc(Br)cc1)C1CCN(C2(C)CCN(C(=O)c3c(C)cc[n+]([O-])c3C)CC2)CC1 [ANCRIVIROC]	0.6 nM	6500 ng·h/mL	clearance [2]: 12.8 mL/min/kg; clearance [3]: 4.28 mL/min/kg; Fa [4]: 57%; bioavailability [5]: 52%; half-life [6]: 5.4 h; Cmax [7]: 2500 nM; Cmax [8]: 760 nM; Tmax [9]: 2 h; Tmax [10]: 0.5 h; half-life [11]: 6 h; bioavailability [12]: 63%; Fa [13]: 80%
